What was measured:
[1] = background statement; cited from earlier work
[2] = background statement; cited from earlier work; remark: listed apart in the source
[3] = Stability test on the fulvestrant suspensions of Examples 1-3: related substances (EP10.0 method); assay type: physicochemical; settings: starting material
Experimental: The fulvestrant suspensions prepared in Examples 1 and 2 were stored in a refrigerator at 4° C. for 14 days or 10 days, and tested for related substances.
The fulvestrant suspension prepared in Example 3 was placed at −20° C., 4° C., 25° C., 40° C. or 60° C., and tested for related substances, the morphology, particle size distribution and crystalline form changes of the fulvestrant solid particles. The test for the related substances was performed according to the EP10.0 method.

Main peak, peak area [3]: 99.84%
RRT 0.51, peak area [3]: 0.01%
RRT 0.88, peak area [3]: 0.05%
RRT 1.19, peak area [3]: 0.04%
RRT 2.92, peak area [3]: 0.03%
Total impurities, peak area [3]: 0.05%
SMILES: C[C@]12CC[C@@H]3c4ccc(O)cc4C[C@@H](CCCCCCCCC[S+]([O-])CCCC(F)(F)C(F)(F)F)[C@H]3[C@@H]1CC[C@@H]2O (some centres unmarked) [Fulvestrant, 7-(9-(4,4,5,5,5-pentafluoropentylsulfinyl)nonyl)estra-1,3,5(10)-triene-3,17-diol]
water solubility [1]: very low
oral bioavailability [2]: low

From patent US12377049B2, “Fulvestrant pharmaceutical composition, preparation method therefor, and application thereof” (SHANGHAI BOCIMED PHARMACEUTICAL CO., LTD., priority 2019, dated 2025)
